Measured values published in ChEMBL document CHEMBL4673368, “Ophiobolin Sesterterpenoids and Farnesylated Phthalide Derivatives from the Deep Sea Cold-Seep-Derived Fungus Aspergillus insuetus SD-512” (2020).

Tests used:
Type in all cases: functional
Aeromonas hydrophila = assay: Antibacterial activity against Aeromonas hydrophila QDIO-10 assessed as reduction in microbial growth after 24 hrs by serial dilution method
Escherichia coli = assay: Antibacterial activity against Escherichia coli QDIO-1 assessed as reduction in microbial growth after 24 hrs by serial dilution method
Pseudomonas aeruginosa = assay: Antibacterial activity against Pseudomonas aeruginosa QDIO-2 assessed as reduction in microbial growth after 24 hrs by serial dilution method
Vibrio vulnificus = assay: Antibacterial activity against Vibrio vulnificus QDIO-4 assessed as reduction in microbial growth after 24 hrs by serial dilution method
Vibrio alginolyticus = assay: Antibacterial activity against Vibrio alginolyticus QDIO-7 assessed as reduction in microbial growth after 24 hrs by serial dilution method
Vibrio parahaemolyticus = assay: Antibacterial activity against Vibrio parahaemolyticus QDIO-5 assessed as reduction in microbial growth after 24 hrs by serial dilution method
Edwardsiella tarda = assay: Antibacterial activity against Edwardsiella tarda QDIO-8 assessed as reduction in microbial growth after 24 hrs by serial dilution method
Vibrio anguillarum = assay: Antibacterial activity against Vibrio anguillarum QDIO-9 assessed as reduction in microbial growth after 24 hrs by serial dilution method

Row | Structure (SMILES) | MIC (Aeromonas hydrophila) [µg/mL] | MIC (Escherichia coli) [µg/mL] | MIC (Pseudomonas aeruginosa) [µg/mL] | MIC (Vibrio vulnificus) [µg/mL] | MIC (Vibrio alginolyticus) [µg/mL] | MIC (Vibrio parahaemolyticus) [µg/mL] | MIC (Edwardsiella tarda) [µg/mL] | MIC (Vibrio anguillarum) [µg/mL]
1 | CO[C@]12C[C@@](C)(O)[C@H]3C[C@@]4(C)CC[C@H]([C@@H](C)/C=C\C=C(C)C)[C@@H]4C/C=C(/CO1)[C@@]32O | > 32 | > 32 | > 32 | > 32 | > 32 | > 32 | > 32 | > 32
2 | CC(C)=CCC[C@H](C)[C@H]1CC[C@]2(C)C[C@H]3[C@@H]4/C(=C\C[C@@H]12)CO[C@]4(O)C[C@@]3(C)O | > 32 | > 32 | > 32 | > 32 | > 32 | > 32 | > 32 | > 32
3 | COc1cc2c(c(O)c1OC/C=C(\C)CC/C=C(\C)CCCC(C)(C)OC(C)=O)COC2=O | 8 | 32 | 8 | 4 | 4 | 8 | 4 | > 32
4 | CC(C)=C/C=C\[C@H](C)[C@H]1CC[C@]2(C)C[C@@H]3C(C)=CC(=O)[C@H]3/C(CO)=C\C[C@@H]12 | 8 | 16 | 8 | 8 | 4 | 8 | 8 | 32
5 | COc1cc2c(c(O)c1OC/C=C(\C)CC/C=C(\C)CCC=C(C)C)COC2=O | 8 | 32 | 16 | 4 | 4 | 16 | 8 | > 32
6 | CC(C)=C/C=C\[C@H](C)[C@H]1CC[C@]2(C)C[C@@H]3C(C)=CC(=O)[C@H]3/C(C=O)=C\C[C@@H]12 | 8 | 16 | 8 | 8 | 4 | 8 | 8 | 32
7 | CC(C)=CCC[C@H](C)[C@H]1CC[C@]2(C)C[C@@H]3C(C)=CC(=O)[C@H]3/C(CO)=C\C[C@@H]12 | > 32 | > 32 | > 32 | > 32 | > 32 | > 32 | > 32 | > 32
8 | CC(C)=CCC[C@H](C)[C@H]1CC[C@]2(C)C[C@H]3[C@H]4/C(=C\C[C@@H]12)CO[C@@]4(O)C[C@@]3(C)O | 4 | 4 | 8 | 8 | 4 | 4 | 4 | 32
9 | COc1cc2c(c(O)c1OC/C=C(\C)CC/C=C(\C)CCCC(C)(C)O)COC2=O | 16 | 32 | 16 | 4 | 8 | 16 | 8 | > 32
10 | CC(C)=C/C=C\[C@H](C)[C@H]1CC[C@]2(C)C[C@H]3[C@@H]4/C(=C\C[C@@H]12)CO[C@]4(O)C[C@@]3(C)O | > 32 | > 32 | > 32 | > 32 | > 32 | > 32 | > 32 | > 32
11 | O=C(N[C@H](CO)[C@H](O)c1ccc([N+](=O)[O-])cc1)C(Cl)Cl [CHLORAMPHENICOL] | 1 | 1 | 1 | 0.5 | 0.5 | 1 | 0.5 | 0.5
12 | CC(C)=CCC[C@H](C)[C@H]1CC[C@]2(C)C[C@@H]3C(C)=CC(=O)[C@H]3/C(C=O)=C\C[C@@H]12 | > 32 | > 32 | > 32 | > 32 | > 32 | > 32 | > 32 | > 32
